Experimental data: patent US20160206623A9, “Composition For Prevention of Vasoactivity in the Treatment of Blood Loss and Anemia” (priority 2012, published 2016)

Tested on: segments of the rat thoracic aorta (RTA)
Assay: Vasoactivity (isometric tension) of rat thoracic aorta rings in tissue bath

## COc1ccc([C@@H]2Sc3ccccc3N(CCN(C)C)C(=O)[C@@H]2OC(C)=O)cc1 [DLT, Diltiazam]
HES 4.4 uM + PHE, DLT 10^-7 to 10^-5 M (FIG. 8, a2-d2)
  vasoconstriction with HES + PHE: the vasoconstriction is reduced
PHE without hemoglobin, different concentrations of additive (DLT 10^-7 to 10^-5 M)
  effect on PHE induced vasoconstriction: reduces the vasoconstrictive effect of PHE

## CNC[C@H](O)c1cccc(O)c1 [PHE, Phenylephrine]
PHE added after SFH, preliminary experiments
  tension of the RTA: increase the tension of the RTA significantly

## COc1cc2nc(N3CCN(C(=O)C4CCCO4)CC3)nc(N)c2cc1OC (stereo not shown) [TER, Terazosin]
Terazosin suboptimal 10^-8 M, SFH+PHE (FIG. 9)
  vasoconstrictive effect of SFH: reduces the vasoconstrictive effect of SFH
